Data from patent publication EP4703354A1, “COMPOUND AS CCR6 ANTAGONIST, AND PHARMACEUTICAL COMPOSITION AND USE THEREOF” (Wuhan Createrna Science and Technology Co.,Ltd., priority 2023, dated 2024).

Assay: in vivo pharmacokinetic study in SD rats
Conditions: male, rat, plasma; for bioavailability: 1 mg/kg PO vs 1 mg/kg IV, read-out: Oral bioavailability F (%); for AUC(0-t) / Cmax / half-life: 1 mg/kg
Summary of the method: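 Male SD rats (180-200 g), 3 per route: single fasted oral gavage in 1% Tween 80 or tail-vein IV bolus in 50% PEG400. Orbital blood into EDTA-K2 sampled to 8 h; plasma analysed and PK parameters derived by non-compartmental analysis.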

Row | SMILES | bioavailability | AUC(0-t) (IV) | Cmax (IV) | half-life (IV) | AUC(0-t) (PO) | Cmax (PO) | half-life (PO)
1 | CN(C)C(=O)c1nccc(Nc2c(N[C@@H](C#CC3CCC3)[C@]3(C)CC(F)(F)CO3)c(=O)c2=O)c1O (single isomer, unassigned) [110A] | 68.6% | 580 ng·h/mL | 1860 ng/mL | 19.2 min | 397 ng·h/mL | 311 ng/mL | 55.8 min
2 | Cc1cc(F)cnc1[C@H](Nc1c(Nc2ccnc(C(=O)N(C)C)c2O)c(=O)c1=O)[C@]1(C)CC(F)(F)CO1 [093A, 4-((2-(((S)-((S)-4,4-difluoro-2-methyltetrahydrofuran-2-yl)(5-fluoro-3-methylpyridin-2-yl)methyl)amino)-3,4-dioxocyclobut-1-en-1-yl)amino)-3-hydroxy-N,N-dimethylpicolinamide] | 23.7% | 1240 ng·h/mL | 4840 ng/mL | 14.4 min | 295 ng·h/mL | 271 ng/mL | 66 min
3 | CN(C)C(=O)c1nccc(Nc2c(N[C@@H](c3nc(Cl)ccc3F)[C@@]3(C)CC(F)(F)CO3)c(=O)c2=O)c1O [068B, 4-((2-(((S)-(6-chloro-3-fluoropyridin-2-yl)((R)-4,4-difluoro-2-methyltetrahydrofuran-2-yl)methyl)amino)-3,4-dioxocyclobut-1-en-1-yl)amino)-3-hydroxy-N,N-dimethylpicolinamide] | 23.4% | 1270 ng·h/mL | 3630 ng/mL | 15 min | 298 ng·h/mL | 291 ng/mL | 91.8 min
